We go through 15 compounds from patent US9464076B2, “Benzothiophene derivative” (Daiichi Sankyo Company, Limited, priority 2013, dated 2016).

Test [1] addresses PDE10A (H-PDE10A2, Human Phosphodiesterase 10A2) (Homo sapiens (Human), UniProt Q9Y233). The experiment in a line: Measurement of PDE10A inhibitory activity-1 (3H-cAMP, recombinant enzyme). In kind it is biochemical. The settings on record: H-PDE10A2, 64 nM cAMP, 25° C., 2 hours. On the procedure: To a solution containing 20 mM Tris-HCl (pH 7.5), 1 mM MgCl2, 100 μM EDTA, 330 μg/ml bovine serum albumin, 50 kU/ml 5′-nucleotidase, 0.1 μCi ^3H-cAMP (64 nM cAMP), and PDE10A (H-PDE10A2, Human Phosphodiesterase 10A2, Scottish Biomedical), a test compound was added, and the mixture was reacted at 25° C. for 2 hours. To the reaction solution, QAE-Sephadex (17-0190-01, GE Healthcare Japan Corp.) suspended in 10 mM HEPES-Na (pH 7.0) (hereinafter, also referred to as a “QAE-Sephadex suspension”) was added, and the mixture was shaken for 1 minute and left standing for 5 minutes to obtain a supernatant. To the supernatant, a QAE-Sephadex suspension was further added, and the mixture was shaken for 1 minute and left standing for 5 minutes. Then, the obtained supernatant was transferred to LumaPlate (PerkinElmer, Inc.) and assayed using a radiation counter (TopCount NXT, PerkinElmer, Inc.).
The value of the sample reacted without the addition of both a test compound and PDE10A was defined as 0%, and the value of the sample reacted in the presence of PDE10A without the addition of a test compound was defined as 100%.

A further test addresses PDE10A (Homo sapiens (Human), UniProt Q9Y233). The test is described as follows: Measurement of PDE10A inhibitory activity-2 (PDE10A fraction prepared from MOLT-4 cells). The settings on record: PDE10A fraction from MOLT-4 cells (peak around 250 mM NaCl). In kind it is biochemical. Put shortly:
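Enzyme source was a PDE10A-containing fraction from MOLT-4 cell soluble extract, resolved by HiTrap Q anion exchange with a 0–0.8 M NaCl gradient and selected by cAMP-hydrolysing activity. IC50 determined with this fraction by the same procedure as the preceding PDE10A assay.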

Test [2] concerns Male C57BL/6 Cr mice. The test is described as follows: Test on suppression of phencyclidine-induced hyperlocomotion in mice. The test is classed as in vivo, mouse. The settings on record: locomotor activity, test compound 10 mg/kg oral, phencyclidine 5 mg/kg s.c. approx. 1 hour later, measured for 1 hour; for inhibition in vivo at 10 mg/kg: Mus musculus, po, 1 h. On the procedure: Male C57BL/6 Cr mice (Japan SLC, Inc.) (8 weeks old) were used in the experiment. A test compound was suspended at 1 mg/mL in a 0.5% hydroxypropylcellulose solution to prepare a suspension for administration. The suspension of the test compound or a solvent (0.5% hydroxypropylcellulose solution) was orally administered at a dose of 10 mL/kg to each mouse. After the administration, the mouse was immediately placed in a locomotor activity measurement apparatus (Muromachi Kikai Co., Ltd., locomotor activity measurement system SUPERMEX). Approximately 1 hour later, phencyclidine (5 mg/10 mL/kg) or a solvent (10 mL/kg saline) was subcutaneously administered to the mouse. The locomotor activity was measured from immediately after the subcutaneous administration to 1 hour later.
Percent inhibition exceeding 100 means that when the activity of the phencyclidine administration control group was defined as 100, the activity of the group given a test compound was lower than that of the solvent administration control group.

The test system of test [3] is Male C57BL/6 Cr mice. The test is described as above. In kind it is in vivo. Conditions: Mus musculus, oral, calculated by the linear regression method.

Counter-ions that a name gives are not always drawn.

Chain of PDE10A (Q9Y233 whole entry): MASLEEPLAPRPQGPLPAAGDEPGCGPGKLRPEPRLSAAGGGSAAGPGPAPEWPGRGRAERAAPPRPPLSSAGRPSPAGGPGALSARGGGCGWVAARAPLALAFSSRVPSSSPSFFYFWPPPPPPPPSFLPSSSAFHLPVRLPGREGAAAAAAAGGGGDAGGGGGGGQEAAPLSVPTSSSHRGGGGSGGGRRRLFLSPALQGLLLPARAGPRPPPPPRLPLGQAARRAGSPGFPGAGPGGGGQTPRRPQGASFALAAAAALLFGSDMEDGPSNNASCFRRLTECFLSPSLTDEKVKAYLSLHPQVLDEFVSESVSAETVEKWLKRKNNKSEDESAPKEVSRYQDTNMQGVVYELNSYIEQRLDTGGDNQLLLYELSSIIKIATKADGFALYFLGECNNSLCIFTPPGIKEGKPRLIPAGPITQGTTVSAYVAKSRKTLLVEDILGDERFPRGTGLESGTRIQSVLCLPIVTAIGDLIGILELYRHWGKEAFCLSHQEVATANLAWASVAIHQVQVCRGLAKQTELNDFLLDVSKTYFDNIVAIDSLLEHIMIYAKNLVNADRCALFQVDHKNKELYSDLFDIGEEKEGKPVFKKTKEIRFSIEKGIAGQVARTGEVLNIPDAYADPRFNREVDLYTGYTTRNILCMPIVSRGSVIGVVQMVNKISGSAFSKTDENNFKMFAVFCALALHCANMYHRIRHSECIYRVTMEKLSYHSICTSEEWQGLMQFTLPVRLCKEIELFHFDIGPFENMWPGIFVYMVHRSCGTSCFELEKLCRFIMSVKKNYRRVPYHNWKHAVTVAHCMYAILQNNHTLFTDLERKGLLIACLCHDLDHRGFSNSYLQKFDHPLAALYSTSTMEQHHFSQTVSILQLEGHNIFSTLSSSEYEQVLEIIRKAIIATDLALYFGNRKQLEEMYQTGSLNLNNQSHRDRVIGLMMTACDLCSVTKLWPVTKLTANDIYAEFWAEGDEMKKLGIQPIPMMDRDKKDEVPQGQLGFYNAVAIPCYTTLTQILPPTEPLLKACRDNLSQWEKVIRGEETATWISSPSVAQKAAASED
Chain of PDE10A (H-PDE10A2, Human Phosphodiesterase 10A2) (Q9Y233 267-1055): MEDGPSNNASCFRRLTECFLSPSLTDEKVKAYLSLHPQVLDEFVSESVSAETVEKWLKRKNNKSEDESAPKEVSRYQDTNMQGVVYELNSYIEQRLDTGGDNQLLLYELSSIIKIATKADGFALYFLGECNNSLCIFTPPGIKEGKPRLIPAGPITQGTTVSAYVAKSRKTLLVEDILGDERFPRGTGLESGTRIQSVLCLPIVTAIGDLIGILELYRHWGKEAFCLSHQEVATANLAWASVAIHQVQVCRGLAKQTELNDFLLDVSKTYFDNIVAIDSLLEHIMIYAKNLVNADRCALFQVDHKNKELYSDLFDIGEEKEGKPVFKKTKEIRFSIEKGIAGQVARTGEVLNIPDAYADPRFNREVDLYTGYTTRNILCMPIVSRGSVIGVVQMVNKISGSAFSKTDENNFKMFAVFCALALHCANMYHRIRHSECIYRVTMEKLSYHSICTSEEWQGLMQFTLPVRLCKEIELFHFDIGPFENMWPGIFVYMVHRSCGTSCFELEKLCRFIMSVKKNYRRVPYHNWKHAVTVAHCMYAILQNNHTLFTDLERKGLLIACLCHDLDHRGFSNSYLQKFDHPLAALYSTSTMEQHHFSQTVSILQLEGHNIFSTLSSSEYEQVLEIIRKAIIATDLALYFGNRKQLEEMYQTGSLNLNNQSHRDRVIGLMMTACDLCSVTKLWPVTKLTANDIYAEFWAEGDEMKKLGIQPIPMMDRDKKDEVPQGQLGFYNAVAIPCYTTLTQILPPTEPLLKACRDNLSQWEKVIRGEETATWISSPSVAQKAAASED

In the case of `COCc1ccc(C(C)=O)c2sc(C(=O)Nc3cc(CN4CC[C@H](O)C4)c4ccccc4n3)c(C)c12` [Example 38, (S)-7-Acetyl-N-(4-((3-hydroxypyrrolidin-1-yl)methyl)quinolin-2-yl)-4-(methoxymethyl)-3-methylbenzo[b]thiophene-2-carboxamide], the IC50 in test [1] was determined as 0.42 nM; against PDE10A it was 0.23 nM. In the test on Male C57BL/6 Cr mice [2], the inhibition in vivo at 10 mg/kg was 88%. For the same compound, in the test on Male C57BL/6 Cr mice [3], the ED50 is 7 mg/kg.

Regarding `COCc1ccc(C(C)=O)c2sc(C(=O)Nc3cc(CN4CC[C@@H](O)C4)c4ccccc4n3)c(C)c12` [Example 39, (R)-7-Acetyl-N-(4-((3-hydroxypyrrolidin-1-yl)methyl)quinolin-2-yl)-4-(methoxymethyl)-3-methylbenzo[b]thiophene-2-carboxamide], the concentration for half-maximal inhibition (IC50) in test [1] stood at 0.41 nM; against PDE10A, 0.35 nM. Moreover, in the test with Male C57BL/6 Cr mice [2], the inhibition in vivo at 10 mg/kg amounted to 103%. For the same compound, in the test with Male C57BL/6 Cr mice [3], the median effective dose (ED50) is 3.1 mg/kg.

Regarding `COCc1ccc(C(C)=O)c2sc(C(=O)Nc3ccc4c(CN5CCOCC5)cccc4n3)c(C)c12.Cl` [Example 61, 7-Acetyl-4-(methoxymethyl)-3-methyl-N-(5-(morpholinomethyl)quinolin-2-yl)benzo[b]thiophene-2-carboxamide hydrochloride], the inhibition in vivo at 10 mg/kg in the test on Male C57BL/6 Cr mice [2] came out at 122%. For the same compound, the ED50 in the test on Male C57BL/6 Cr mice [3] is 5.7 mg/kg.

In turn, `COCc1ccc(C(C)=O)c2sc(C(=O)Nc3ccc4c(CN5CC[C@@H](O)C5)cccc4n3)c(C)c12` [Example 64, (R)-7-Acetyl-N-(5-((3-hydroxypyrrolidin-1-yl)methyl)quinolin-2-yl)-4-(methoxymethyl)-3-methylbenzo[b]thiophene-2-carboxamide dihydrochloride] came in with an IC50 against PDE10A of 0.76 nM. In addition, in the test on Male C57BL/6 Cr mice [2], the inhibition in vivo at 10 mg/kg stood at 109%. The median effective dose (ED50) in the test on Male C57BL/6 Cr mice [3] was 7.2 mg/kg.

On to `COCc1cccc2nc(NC(=O)c3sc4c(C(C)=O)ccc(COC)c4c3C)ccc12.Cl` [Example 68, 7-Acetyl-4-(methoxymethyl)-N-(5-(methoxymethyl)quinolin-2-yl)-3-methylbenzo[b]thiophene-2-carboxamide hydrochloride], for which the figures for the IC50 (in test [1] (hydrochloride); against PDE10A (hydrochloride)) were 1.9 nM and 0.93 nM, respectively. Also, in the test with Male C57BL/6 Cr mice [2], the “% inhibition” value was 121%. The 50% effective dose (ED50) with Male C57BL/6 Cr mice [3] was 3.6 mg/kg.

`COCc1cccc2nc(NC(=O)c3sc4c(C(C)=O)ccc(COC)c4c3C)ccc12` [Example 69, 7-Acetyl-4-(methoxymethyl)-N-(5-(methoxymethyl)quinolin-2-yl)-3-methylbenzo[b]thiophene-2-carboxamide methanesulfonate] showed an IC50 at PDE10A (methanesulfonate) of 0.38 nM. Moreover, the “% inhibition” value in the test with Male C57BL/6 Cr mice [2] was found to be 81%. In the test on Male C57BL/6 Cr mice [3], the median effective dose (ED50) is 3 mg/kg.

`COCc1ccc(C(C)=O)c2sc(C(=O)Nc3ccc4c(CO)cccc4n3)c(C)c12.Cc1ccc(S(=O)(=O)O)cc1` [Example 81, 7-Acetyl-N-(5-(hydroxymethyl)quinolin-2-yl)-4-(methoxymethyl)-3-methylbenzo[b]thiophene-2-carboxamide p-toluenesulfonate]: the “% inhibition” value in the test on Male C57BL/6 Cr mice [2] was 122%. Also, the ED50 with Male C57BL/6 Cr mice [3] was 3.3 mg/kg.

As for `COCc1ccc(C(C)=O)c2sc(C(=O)Nc3ccc4c(C(=O)N5CC(OC)C5)cccc4n3)c(C)c12` [Example 102, 7-Acetyl-N-(5-((3-methoxyazetidin-1-yl)carbonyl)quinolin-2-yl)-4-(methoxymethyl)-3-methylbenzo[b]thiophene-2-carboxamide], the IC50 in test [1] was found to be 0.7 nM; at PDE10A, 0.3 nM. Further, the “% inhibition” value in the test with Male C57BL/6 Cr mice [2] amounted to 120%.

Take `COCc1ccc(C(C)=O)c2sc(C(=O)Nc3ccc4c(C(=O)N5CC(OC)C5)cccc4n3)c(C)c12` [Example 105, 7-Acetyl-N-(5-((3-methoxyazetidin-1-yl)carbonyl)quinolin-2-yl)-4-(methoxymethyl)-3-methylbenzo[b]thiophene-2-carboxamide methanesulfonate]: the IC50 in test [1] (methanesulfonate) is 2.1 nM.

As for `COCc1ccc(C(C)=O)c2sc(C(=O)Nc3ccc4c(C(=O)N5CC(OC)C5)cccc4n3)c(C)c12.Cc1ccc(S(=O)(=O)O)cc1` [Example 106, 7-Acetyl-N-(5-((3-methoxyazetidin-1-yl)carbonyl)quinolin-2-yl)-4-(methoxymethyl)-3-methylbenzo[b]thiophene-2-carboxamide p-toluenesulfonate], the IC50 against PDE10A (p-toluenesulfonate) was 0.5 nM. In addition, the “% inhibition” value in the test with Male C57BL/6 Cr mice [2] turned out to be 87%. Also, the ED50 with Male C57BL/6 Cr mice [3] was 2.2 mg/kg.

Consider `COCc1ccc(C(C)=O)c2sc(C(=O)Nc3ccc4c(C(=O)N5CC(OC)C5)cccc4n3)c(C)c12` [Example 107, 7-Acetyl-N-(5-((3-methoxyazetidin-1-yl)carbonyl)quinolin-2-yl)-4-(methoxymethyl)-3-methylbenzo[b]thiophene-2-carboxamide hydrobromide], for which, in test [1] (hydrobromide), the IC50 stood at 0.73 nM.

Take `COCc1ccc(C(C)=O)c2sc(C(=O)Nc3ccc4c(CS(C)(=O)=O)cccc4n3)c(C)c12` [Example 109, 7-Acetyl-4-(methoxymethyl)-3-methyl-N-(5-((methylsulfonyl)methyl)quinolin-2-yl)benzo[b]thiophene-2-carboxamide]: in test [1], the 50% inhibitory concentration (IC50) came to 0.61 nM.

Consider `COCc1ccc(C(C)=O)c2sc(C(=O)Nc3ccc4c(CS(C)(=O)=O)cccc4n3)c(C)c12` [Example 110, 7-Acetyl-4-(methoxymethyl)-3-methyl-N-(5-((methylsulfonyl)methyl)quinolin-2-yl)benzo[b]thiophene-2-carboxamide hydrochloride], for which the IC50 amounted to 1.4 nM in test [1] (hydrochloride) and 0.23 nM against PDE10A. Also, the inhibition in vivo at 10 mg/kg in the test with Male C57BL/6 Cr mice [2] was 76%.

Regarding `COCc1ccc(C(C)=O)c2sc(C(=O)Nc3ccc4c(CS(C)(=O)=O)cccc4n3)c(C)c12` [Example 111, 7-Acetyl-4-(methoxymethyl)-3-methyl-N-(5-((methylsulfonyl)methyl)quinolin-2-yl)benzo[b]thiophene-2-carboxamide methanesulfonate], the IC50 in test [1] (methanesulfonate) was 1.1 nM.

With `Br.COCc1ccc(C(C)=O)c2sc(C(=O)Nc3ccc4c(CS(C)(=O)=O)cccc4n3)c(C)c12` [Example 112, 7-Acetyl-4-(methoxymethyl)-3-methyl-N-(5-((methylsulfonyl)methyl)quinolin-2-yl)benzo[b]thiophene-2-carboxamide hydrobromide], in test [1] (hydrobromide), the concentration for half-maximal inhibition (IC50) is 0.84 nM. Besides, in the test on Male C57BL/6 Cr mice [2], the “% inhibition” value came out at 57%.
